System: neuronal cells
Experiment: Toxicogenomic DNA chip test: gene expression level (RES) in cells exposed to the compound compared to unexposed cells
Format: cell-based
Excerpt: One wishes to carry out the evaluation of the toxicity of a collection of (15) pesticides using a toxicogenomic analysis of the impact of these pesticides on neuronal cells, according to 4 modes of exposure of the cells to the compounds:
DNA chips built specifically to test the expression level of the 51 genes in cells under study, each chip being configured only for one gene in our case, each chip allowing to carry out for each gene a redundant number of measurements (16) in order to stabilize the levels of expression by analysing the results on average. The spots on the chips are numbered sp1 to sp16.
An automated device D5 allowing, on signal of execution of the C2 test, to take a E1 sample of the cell culture C (non exposed) and a E2 sample of the cell culture C exposed to the compound by the device described previously under the conditions specified with the configuration, then to use the D1 device to select a DNA chip corresponding to the gene specified at the time of the configuration, and to put the samples E1 and E2 thus obtained in the presence of the aforementioned DNA chip according to the methods described in the D1 device,
The result of a test, RES, transmitted by the Resource Unit to the PC, is a raw numerical value which indicates the expression level of the gene indicated in the configuration, for the cell exposed to the compound under the conditions of concentration and exposure duration specified in the configuration, compared to the expression level of the same gene in an unexposed cell of identical nature.
The following results are based on 3 evaluations, each using a different strategy, the target cells being neuronal cells, the mode of exposure being Expo11.
The results presented in table 2 show the values obtained in (052) for the evaluation of Paraquat according to the 4 modes Expo11, Expo12, Expo21, Expo22 carried out. The missing data are not relevant (ranging between 0.5 and 2 strictly).

[1] = Neuron, C2 (IC50/10), 24 h (Expo21)
[2] = Neuron, C2 (IC50/10), 48 h (Expo22)
[3] = neuronal cells, Expo11 (IC50, 24 h), strategy of selection by class

C[n+]1ccc(-c2cc[n+](C)cc2)cc1 [Paraquat]
ALB gene expression level RES (exposed/unexposed cells) [1]: 0.34 | APAF1 gene expression level RES (exposed/unexposed cells) [1]: 0.20 | AR gene expression level RES (exposed/unexposed cells) [1]: 0.08 | ATF6 gene expression level RES (exposed/unexposed cells) [1]: 0.17 | ATM gene expression level RES (exposed/unexposed cells) [1]: 0.11 | BAX gene expression level RES (exposed/unexposed cells) [1]: 0.09 | BCL2 gene expression level RES (exposed/unexposed cells) [1]: 0.14 | BZRP gene expression level RES (exposed/unexposed cells) [1]: 0.14 | C12ORF8 gene expression level RES (exposed/unexposed cells) [1]: 0.22 | CALR gene expression level RES (exposed/unexposed cells) [1]: 0.38 | CDC25C gene expression level RES (exposed/unexposed cells) [1]: 0.37 | CDK4 gene expression level RES (exposed/unexposed cells) [1]: 0.29 | CDKN1A gene expression level RES (exposed/unexposed cells) [1]: 0.13 | CREB1 gene expression level RES (exposed/unexposed cells) [1]: 0.29 | CTSB gene expression level RES (exposed/unexposed cells) [1]: 0.20 | CTSD gene expression level RES (exposed/unexposed cells) [1]: 0.05 | EGF gene expression level RES (exposed/unexposed cells) [1]: 0.21 | EPHX1 gene expression level RES (exposed/unexposed cells) [1]: 0.19 | FOS gene expression level RES (exposed/unexposed cells) [1]: 0.12 | GADD45A gene expression level RES (exposed/unexposed cells) [1]: 0.20 | GPX1 gene expression level RES (exposed/unexposed cells) [1]: 0.09 | GSS gene expression level RES (exposed/unexposed cells) [1]: 0.28 | GSTM3 gene expression level RES (exposed/unexposed cells) [1]: 0.36 | HOXD1 gene expression level RES (exposed/unexposed cells) [1]: 0.11 | HSPA5 gene expression level RES (exposed/unexposed cells) [1]: 0.33 | HSPA9B gene expression level RES (exposed/unexposed cells) [1]: 0.16 | JUN gene expression level RES (exposed/unexposed cells) [1]: 0.33 | MDM2 gene expression level RES (exposed/unexposed cells) [1]: 0.05 | NFKB1 gene expression level RES (exposed/unexposed cells) [1]: 0.26 | NOS2A gene expression level RES (exposed/unexposed cells) [1]: 0.30 | PARA gene expression level RES (exposed/unexposed cells) [1]: 0.04 | PGR gene expression level RES (exposed/unexposed cells) [1]: 0.12 | RAD50 gene expression level RES (exposed/unexposed cells) [1]: 0.35 | RAD51 gene expression level RES (exposed/unexposed cells) [1]: 0.22 | SOD1 gene expression level RES (exposed/unexposed cells) [1]: 0.24 | TF1 gene expression level RES (exposed/unexposed cells) [1]: 0.53 | THBS1 gene expression level RES (exposed/unexposed cells) [1]: 0.08 | TP53 gene expression level RES (exposed/unexposed cells) [1]: 0.31 | TUBA1 gene expression level RES (exposed/unexposed cells) [1]: 0.03 | XBP1 gene expression level RES (exposed/unexposed cells) [1]: 0.24 | A2M gene expression level RES (exposed/unexposed cells) [2]: 0.04 | AITCH gene expression level RES (exposed/unexposed cells) [2]: 0.03 | ALB gene expression level RES (exposed/unexposed cells) [2]: 0.02 | APAF1 gene expression level RES (exposed/unexposed cells) [2]: 0.05 | AR gene expression level RES (exposed/unexposed cells) [2]: 0.05 | ATF6 gene expression level RES (exposed/unexposed cells) [2]: 0.06 | ATM gene expression level RES (exposed/unexposed cells) [2]: 0.04 | BAX gene expression level RES (exposed/unexposed cells) [2]: 0.05 | BCL2 gene expression level RES (exposed/unexposed cells) [2]: 0.03 | BZRP gene expression level RES (exposed/unexposed cells) [2]: 0.04 | C12ORF8 gene expression level RES (exposed/unexposed cells) [2]: 0.04 | CALR gene expression level RES (exposed/unexposed cells) [2]: 0.11 | CDC25C gene expression level RES (exposed/unexposed cells) [2]: 0.05 | CDK4 gene expression level RES (exposed/unexposed cells) [2]: 0.06 | CDKN1A gene expression level RES (exposed/unexposed cells) [2]: 0.02 | CREB1 gene expression level RES (exposed/unexposed cells) [2]: 0.05 | CTSB gene expression level RES (exposed/unexposed cells) [2]: 0.06 | CTSD gene expression level RES (exposed/unexposed cells) [2]: 0.03 | EGF gene expression level RES (exposed/unexposed cells) [2]: 0.05 | EPHX1 gene expression level RES (exposed/unexposed cells) [2]: 0.08 | FOS gene expression level RES (exposed/unexposed cells) [2]: 0.05 | GADD45A gene expression level RES (exposed/unexposed cells) [2]: 0.04 | GPX1 gene expression level RES (exposed/unexposed cells) [2]: 0.02 | GSS gene expression level RES (exposed/unexposed cells) [2]: 0.03 | GSTM3 gene expression level RES (exposed/unexposed cells) [2]: 0.06 | HOXD1 gene expression level RES (exposed/unexposed cells) [2]: 0.05 | HSPA5 gene expression level RES (exposed/unexposed cells) [2]: 0.07 | HSPA9B gene expression level RES (exposed/unexposed cells) [2]: 0.06 | JUN gene expression level RES (exposed/unexposed cells) [2]: 0.05 | MDM2 gene expression level RES (exposed/unexposed cells) [2]: 0.06 | NFKB1 gene expression level RES (exposed/unexposed cells) [2]: 0.05 | NOS2A gene expression level RES (exposed/unexposed cells) [2]: 0.06 | PARA gene expression level RES (exposed/unexposed cells) [2]: 0.05 | PGR gene expression level RES (exposed/unexposed cells) [2]: 0.04 | RAD50 gene expression level RES (exposed/unexposed cells) [2]: 0.06 | RAD51 gene expression level RES (exposed/unexposed cells) [2]: 0.06 | SOD1 gene expression level RES (exposed/unexposed cells) [2]: 0.04 | TF1 gene expression level RES (exposed/unexposed cells) [2]: 0.05 | THBS1 gene expression level RES (exposed/unexposed cells) [2]: 0.06 | TP53 gene expression level RES (exposed/unexposed cells) [2]: 0.05 | TUBA1 gene expression level RES (exposed/unexposed cells) [2]: 0.04 | XBP1 gene expression level RES (exposed/unexposed cells) [2]: 0.06 | A2M marker test: relevant level of expression (RES <=0.5 or >=2) [3]: relevant result | CDKN1A marker test: relevant level of expression (RES <=0.5 or >=2) [3]: relevant result was found | CYP19A1 marker test: relevant level of expression (RES <=0.5 or >=2) [3]: did not provide any relevant result | SOD1 marker test: relevant level of expression (RES <=0.5 or >=2) [3]: without success

Reference: US20080228408A1, “Method for Determining the State of an Ensemble of Cells and System for the Implementation of the Method” (priority 2005, published 2008)
